Results on 17 compounds are retold here after patent publication US9963452B2, “Methods, compounds, and compositions for inhibition of ROS” (AUGUSTA PHARMACEUTICALS INC., priority 2013, dated 2018).

One experiment deals with glioblastoma cell lines. Description: Glioblastoma growth inhibition by Xalkori (cell-based assay, FIG. 3). Particulars: depending on the cell line (FIG. 3). The procedure: Five tumor-derived cell lines were treated with the ROS inhibitor compounds and cell survival was monitored to determine the cancer prohibition effects of the compounds. The cell lines included HeLa, a cervical cancer cell line, and four glioblastoma cell lines U138, U87, LN18, and U118. The basic protocol for the in-vitro cell survival assay is the same for all five cell lines. In particular, the cells were seeded in 96-well plates at 2-5×10^3 cells/well (cell line dependent) in culture medium. The cells were grown for 2 days before the compounds were dissolved in DMSO and added to final concentrations of 100 uM, 10 uM, or 1 uM (DMSO final concentration 0.5%). The cell culture was then assayed one day after the addition of the compounds. The assay used Alamar blue as a redox-sensitive dye that interrogates mitochondrial fitness of cells, and these assays provided a readout for cell proliferation and viability. The raw values were normalized to an average of several vehicle control wells and are presented as percent decrease in proliferation/viability, which is converted to half maximal effective concentration (EC50) values.
FIG. 3: Potency, selectivity and growth inhibitory effects of Xalkori in in vitro kinase and cell-based assays. […] U138 and U118 have been documented to express aberrant ROS (FIG-ROS fusion). […]

Experiment [1] addresses T1, ROS (Homo sapiens, UniProt P08922). The note with it: reported in background; cited from earlier work.
Another experiment concerns the target T2, EGFR (Homo sapiens, UniProt P00533).
T2 construct: ROS or EGFR enzyme, 0.008 ng/ul
Description: In vitro EGFR enzymatic reaction assay (HTRF, Cisbio). It is filed as biochemical. For orientation: TR-FRET usually uses a lanthanide donor and a delayed reading to cut background.

Experiment [2] deals with T1, ROS. Description: In vitro ROS enzymatic reaction assay (HTRF, Cisbio). Format: biochemical. More on the design: ROS or EGFR enzyme, 0.008 ng/ul. Particulars: for inhibition at 5 µM: ROS kinase, compound at 5 uM, read-out: Kinase Inhib. 5 uM (%). How it is done: The ROS enzymatic reactions were carried out with a high throughput screening platform for phosphor-detection of kinase activity. This platform based on homogeneous time resolved fluorescence (HTRF) technology from Cisbio Bioassays, Inc. (Cisbio). […] The reaction was allowed to proceed for 30 minutes at room temperature. An equal volume of detection buffer was then added to the reaction mix.

Like-named read-outs stand apart in the source and are kept apart here.

T2 sequence (P00533 25-1210, species assumed): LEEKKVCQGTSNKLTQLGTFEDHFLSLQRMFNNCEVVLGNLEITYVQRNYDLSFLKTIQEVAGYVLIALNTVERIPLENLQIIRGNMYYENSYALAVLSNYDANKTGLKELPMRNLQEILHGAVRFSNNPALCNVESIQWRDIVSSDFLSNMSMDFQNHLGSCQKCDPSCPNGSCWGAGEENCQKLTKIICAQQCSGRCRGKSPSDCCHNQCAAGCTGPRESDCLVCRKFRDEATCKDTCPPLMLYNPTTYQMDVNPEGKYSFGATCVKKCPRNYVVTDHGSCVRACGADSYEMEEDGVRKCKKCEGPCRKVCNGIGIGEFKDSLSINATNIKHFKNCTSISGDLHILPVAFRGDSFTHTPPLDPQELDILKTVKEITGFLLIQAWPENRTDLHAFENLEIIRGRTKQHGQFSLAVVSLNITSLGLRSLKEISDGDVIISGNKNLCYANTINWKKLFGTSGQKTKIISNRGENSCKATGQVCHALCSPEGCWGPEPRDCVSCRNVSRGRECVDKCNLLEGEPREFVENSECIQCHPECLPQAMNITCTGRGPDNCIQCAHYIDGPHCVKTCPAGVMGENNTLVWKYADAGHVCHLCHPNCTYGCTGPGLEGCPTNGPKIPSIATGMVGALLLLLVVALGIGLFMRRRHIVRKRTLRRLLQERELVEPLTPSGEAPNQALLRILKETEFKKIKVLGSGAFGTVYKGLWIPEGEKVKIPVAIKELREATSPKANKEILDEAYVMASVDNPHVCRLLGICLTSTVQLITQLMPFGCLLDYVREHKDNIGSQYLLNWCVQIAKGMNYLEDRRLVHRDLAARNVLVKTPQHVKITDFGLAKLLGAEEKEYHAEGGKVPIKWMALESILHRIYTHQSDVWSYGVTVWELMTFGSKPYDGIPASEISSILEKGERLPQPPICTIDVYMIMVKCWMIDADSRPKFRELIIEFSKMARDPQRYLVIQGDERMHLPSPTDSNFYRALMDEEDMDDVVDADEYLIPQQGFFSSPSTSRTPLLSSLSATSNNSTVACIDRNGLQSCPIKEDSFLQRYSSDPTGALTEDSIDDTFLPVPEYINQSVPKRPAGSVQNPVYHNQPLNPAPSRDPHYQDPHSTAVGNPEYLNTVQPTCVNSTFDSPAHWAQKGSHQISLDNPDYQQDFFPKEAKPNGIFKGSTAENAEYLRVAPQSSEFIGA
T1 sequence (P08922 28-2347): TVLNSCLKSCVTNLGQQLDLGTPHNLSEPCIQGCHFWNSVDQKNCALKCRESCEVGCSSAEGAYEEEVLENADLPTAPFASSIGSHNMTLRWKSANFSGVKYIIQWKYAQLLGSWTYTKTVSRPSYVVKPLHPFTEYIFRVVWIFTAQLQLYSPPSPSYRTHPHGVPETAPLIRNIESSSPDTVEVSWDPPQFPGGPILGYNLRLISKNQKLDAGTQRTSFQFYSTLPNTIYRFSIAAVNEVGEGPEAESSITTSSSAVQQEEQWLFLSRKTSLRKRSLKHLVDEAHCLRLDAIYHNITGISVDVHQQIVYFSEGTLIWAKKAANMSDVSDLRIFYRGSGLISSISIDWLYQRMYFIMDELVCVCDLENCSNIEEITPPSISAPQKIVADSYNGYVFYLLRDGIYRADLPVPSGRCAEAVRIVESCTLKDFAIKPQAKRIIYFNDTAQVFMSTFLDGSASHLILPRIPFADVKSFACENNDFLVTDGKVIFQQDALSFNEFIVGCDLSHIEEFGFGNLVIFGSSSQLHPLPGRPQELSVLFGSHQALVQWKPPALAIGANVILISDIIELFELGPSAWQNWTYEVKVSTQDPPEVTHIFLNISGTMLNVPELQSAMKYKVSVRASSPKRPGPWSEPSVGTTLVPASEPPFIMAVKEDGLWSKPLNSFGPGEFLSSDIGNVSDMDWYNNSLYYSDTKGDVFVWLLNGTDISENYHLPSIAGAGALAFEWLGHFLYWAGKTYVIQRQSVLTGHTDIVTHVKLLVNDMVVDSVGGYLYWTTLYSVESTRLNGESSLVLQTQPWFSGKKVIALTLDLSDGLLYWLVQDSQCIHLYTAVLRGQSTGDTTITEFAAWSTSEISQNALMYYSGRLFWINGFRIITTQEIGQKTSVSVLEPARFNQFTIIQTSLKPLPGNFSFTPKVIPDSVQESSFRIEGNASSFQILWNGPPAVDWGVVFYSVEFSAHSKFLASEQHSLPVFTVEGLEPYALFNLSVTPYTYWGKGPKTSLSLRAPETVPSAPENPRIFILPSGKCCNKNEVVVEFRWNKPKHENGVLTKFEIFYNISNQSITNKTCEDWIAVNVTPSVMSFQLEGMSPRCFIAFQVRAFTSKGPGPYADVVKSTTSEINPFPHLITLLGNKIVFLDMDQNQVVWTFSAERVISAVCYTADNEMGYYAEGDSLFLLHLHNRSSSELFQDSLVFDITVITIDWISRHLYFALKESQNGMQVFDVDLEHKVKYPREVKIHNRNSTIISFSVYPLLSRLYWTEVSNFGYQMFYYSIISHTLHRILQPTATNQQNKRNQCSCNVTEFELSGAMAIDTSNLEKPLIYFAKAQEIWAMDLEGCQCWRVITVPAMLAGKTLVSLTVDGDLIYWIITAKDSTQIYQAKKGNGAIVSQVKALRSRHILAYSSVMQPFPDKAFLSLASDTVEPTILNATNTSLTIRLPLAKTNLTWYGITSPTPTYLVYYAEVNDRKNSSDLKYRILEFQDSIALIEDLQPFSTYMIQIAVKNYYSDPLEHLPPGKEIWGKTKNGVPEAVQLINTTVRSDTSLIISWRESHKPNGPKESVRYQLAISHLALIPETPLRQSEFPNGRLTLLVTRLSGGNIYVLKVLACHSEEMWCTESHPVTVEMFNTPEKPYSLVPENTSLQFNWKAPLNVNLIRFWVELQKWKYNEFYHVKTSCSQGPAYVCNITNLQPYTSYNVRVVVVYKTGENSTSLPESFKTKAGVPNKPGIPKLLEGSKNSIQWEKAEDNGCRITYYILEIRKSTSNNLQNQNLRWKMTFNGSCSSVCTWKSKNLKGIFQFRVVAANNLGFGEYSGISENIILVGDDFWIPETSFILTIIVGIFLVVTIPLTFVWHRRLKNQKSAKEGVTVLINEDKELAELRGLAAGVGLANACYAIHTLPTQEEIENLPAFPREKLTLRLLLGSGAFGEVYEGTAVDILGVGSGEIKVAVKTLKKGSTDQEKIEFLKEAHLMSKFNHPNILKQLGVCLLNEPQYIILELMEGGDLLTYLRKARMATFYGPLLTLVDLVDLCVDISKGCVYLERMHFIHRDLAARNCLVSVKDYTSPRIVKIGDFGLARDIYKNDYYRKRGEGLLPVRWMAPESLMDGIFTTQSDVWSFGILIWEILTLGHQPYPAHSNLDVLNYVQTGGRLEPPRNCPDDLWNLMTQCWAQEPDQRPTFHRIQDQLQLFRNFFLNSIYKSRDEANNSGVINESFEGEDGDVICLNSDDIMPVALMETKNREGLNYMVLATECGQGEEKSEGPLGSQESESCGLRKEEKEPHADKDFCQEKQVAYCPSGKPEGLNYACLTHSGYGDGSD

Consider `C[C@@H](Oc1cc(-c2cnn(C3CCNCC3)c2)cnc1N)c1c(Cl)ccc(F)c1Cl` [Crizotinib], for which the EC50 (as a rule, the midpoint of the concentration-response curve) with glioblastoma cell lines was 12 to 20 nM.

For `Cc1cc(O)cc(-c2nn(CC#N)cc2-c2ccnc(-c3cccnc3)c2)c1` [KIST301080], the concentration for half-maximal inhibition (IC50) (as a rule, the concentration needed to halve the response being measured) on ROS [1] is 209 nM.

In the case of `Brc1cccc(Nc2nccc(Nc3ccc4ncsc4c3)n2)c1` [drawing 305], the figures for the IC50 against EGFR and on ROS [2] were greater than 5000 nM and 17 nM, respectively. For the same compound, on ROS [2], the inhibition at 5 µM turned out to be 90%.

For the compound `O=C(c1ccc(Nc2ncc(Cl)c(Nc3ccc4ncsc4c3)n2)cc1)N1CCCCC1` [drawing 306], the IC50 on EGFR is greater than 5000 nM. Also, on ROS [2], the IC50 was found to be 70 nM and the inhibition at 5 µM is 87.9%.

For `CN1CCN(C(=O)c2ccc(Nc3ncc(Cl)c(Nc4ccc5ncsc5c4)n3)cc2)CC1` [drawing 307], the IC50 at EGFR is greater than 5000 nM; at ROS [2], 405 nM. Also, the inhibition at 5 µM at ROS [2] amounted to 92.2%.

On EGFR, `O=C(O)c1ccc(Nc2ncc(Cl)c(Nc3ccc4ncsc4c3)n2)cc1` [drawing 308] registered a half-maximal inhibitory concentration (IC50) of 2400 nM. In addition, on ROS [2], the IC50 worked out at 37 nM and the inhibition at 5 µM came out at 101%.

With `CC(C)(C)OC(=O)NC1CCN(C(=O)c2ccc(Nc3ncc(Cl)c(Nc4ccc5ncsc5c4)n3)cc2)CC1` [drawing 309], the IC50 against EGFR and against ROS [2] was greater than 5000 nM in each case. For the same compound, the inhibition at 5 µM at ROS [2] stood at 29.4%.

`O=C(O)c1cccc(Nc2ncc(Cl)c(Nc3ccc4ncsc4c3)n2)c1` [drawing 325] displayed a 50% inhibitory concentration (IC50) against EGFR greater than 5000 nM. At ROS [2], half-maximal inhibition (IC50) required 189 nM and the inhibition at 5 µM came out at 100%.

In turn, `NCC1CCN(C(=O)c2ccc(Nc3ncc(Cl)c(Nc4ccc5ncsc5c4)n3)cc2)CC1` [drawing 326] yielded an IC50 at EGFR greater than 5000 nM. Besides, at ROS [2], the IC50 amounted to 368 nM and the inhibition at 5 µM came out at 100%.

Regarding `NC1CCN(C(=O)c2ccc(Nc3ncc(Cl)c(Nc4ccc5ncsc5c4)n3)cc2)CC1` [drawing 327], the IC50 against EGFR was greater than 5000 nM. In addition, on ROS [2], the IC50 came out at 444 nM and the inhibition at 5 µM stood at 100%.

Turning to `O=C(c1cccc(Nc2ncc(Cl)c(Nc3ccc4ncsc4c3)n2)c1)N1CCCCC1` [drawing 328], on EGFR, the IC50 is greater than 5000 nM. Besides, on ROS [2], the IC50 amounted to 240 nM and the inhibition at 5 µM worked out at 100%.

Turning to `CN1CCN(C(=O)c2cccc(Nc3ncc(Cl)c(Nc4ccc5ncsc5c4)n3)c2)CC1` [drawing 329], the values for the half-maximal inhibitory concentration (IC50) against EGFR and at ROS [2] were greater than 5000 nM and 330 nM, respectively. Besides, the inhibition at 5 µM on ROS [2] was found to be 100%.

As to `COc1ccc(C2=CCNCC2)cc1Nc1nccc(Nc2ccc3ncsc3c2)n1` [drawing 330], the IC50 at EGFR stood at 802 nM. On ROS [2], 3 nM corresponded to half-maximal inhibition (IC50) and the inhibition at 5 µM worked out at 100%.

At EGFR, `O=C(NCC1CCNCC1)c1ccc(Nc2ncc(Cl)c(Nc3ccc4ncsc4c3)n2)cc1` [drawing 331] gave an IC50 greater than 5000 nM. Further, on ROS [2], the IC50 was determined as 1010 nM and the inhibition at 5 µM is 100%.

Take `NC1CCN(C(=O)c2cccc(Nc3ncc(Cl)c(Nc4ccc5ncsc5c4)n3)c2)CC1` [drawing 332]: the results for the IC50 at EGFR and against ROS [2] were greater than 5000 nM and 165 nM, respectively. Besides, at ROS [2], the inhibition at 5 µM is 100%.

As for `NCC1CCN(C(=O)c2cccc(Nc3ncc(Cl)c(Nc4ccc5ncsc5c4)n3)c2)CC1` [drawing 333], on EGFR, the IC50 was greater than 5000 nM. At ROS [2], the IC50 was 110 nM and the inhibition at 5 µM stood at 100%.

Turning to `O=C(NCC1CCNCC1)c1cccc(Nc2ncc(Cl)c(Nc3ccc4ncsc4c3)n2)c1` [drawing 334], the IC50 at EGFR was greater than 5000 nM. At ROS [2], half-maximal inhibition (IC50) was put at 380 nM and the inhibition at 5 µM was determined as 100%.
